The record followed here is US6437184B1, “Oxime compounds, their use, and intermediates for their production” (Sumitomo Chemical Company, Limited, priority 1997, dated 2002).

Bounds are passed on as bounds.

Format in all cases: in vivo
For one assay, the system named is Cydia pomonella. Description: Insecticidal test against Cydia pomonella. The following applies: 168 h, 100 ppm water dilution, 0.2 ml on surface of artificial diet, eggs just before hatching, after 7 days. An outline of the steps:
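A 100 ppm aqueous dilution of formulated compound (0.2 ml) was spread onto 3 g artificial diet and air-dried. About 20 near-hatching Cydia pomonella eggs on wax paper were added, four replicates per treatment. Larval mortality was recorded after 7 days.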

For another assay, the system named is Musca domestica. Description: Insecticidal test against Musca domestica. The following applies: 24 h, 500 ppm water dilution, 0.7 ml on filter paper with sucrose, female adults, after 1 day, read-out: mortality. An outline of the steps: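 Filter paper treated with 500 ppm water dilution of formulated compound, with sucrose as diet; ten female adult houseflies confined in covered cup. Mortality determined from adult survival after 1 day.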

A further assay concerns Tetranychus urticae. Description: Acaricidal test against Tetranychus urticae. The following applies: 500 ppm water dilution, 15 ml sprayed over brush bean with female adults set free 6 days before; after 8 days. Here is the method: About twenty female adults of Tetranychus urticae were set free on brush bean (Phaseolus vulgaris) in the primary leaf stage, which had been potted in a plastic cup for 7 days after the seeding. After 6 days, a 200-fold water dilution (500 ppm) of a test compound formulation obtained according to Formulation Example 1 or 2 was sprayed at a volume of 15 ml over the plant. After 8 days, each compound was evaluated for acaricidal activity on the following criteria.
−: almost no damage and completely no surviving mites
±: slight damage and some few surviving mites
+: rather smaller damage and a rather fewer surviving mites than non-treatment case
++: same as non-treatment case

The test system of a further assay is Heliothis virescens. As to the kind of experiment: Insecticidal test against Heliothis virescens. The following applies: 168 h, 100 ppm water dilution, 0.2 ml on surface of artificial diet, second-instar larvae, after 7 days. How it is done:
A water dilution (100 ppm) of a test compound formulation obtained according to Formulation Example 1 was added dropwise at a volume of 0.2 ml and uniformly spread over the surface of an artificial diet having a weight of 3 g, which had been prepared in a 30 ml plastic cup. After air drying, one second-instar larva of Heliothis virescens was set free in each cup. Ten larvae were used for each treatment. After 7 days, the mortality of the larvae was determined.

Another assay has as its system Helicoverpa armigera. As to the kind of experiment: Insecticidal test against Helicoverpa armigera. The following applies: 120 h, 100 ppm water dilution, cotton leaf fragment immersed 10 seconds, third-instar larvae, after 5 days. Here is the method: A cotton leaf fragment (diameter, 5 cm) was immersed for 10 seconds Lin a water dilution (100 ppm) of a test compound formulation obtained according to Formulation Example 1. This fragment was taken out from the dilution, air dried, and placed in a polyethylene cup having a diameter of 5.5 cm. One third-instar larva of Helicoverpa armigera was set free in each cup. Ten larvae were used for each treatment. After 5 days, the mortality of the larvae was determined.

Another assay deals with Plutella xylostella. As to the kind of experiment: Insecticidal test against Plutella xylostella. Particulars: 96 h, 50 ppm water dilution sprayed over potted cabbages, 25 ml per pot, third-instar larvae, after 4 days, read-out: mortality. Here is the method:
To a water dilution (50 ppm) of a test compound formulation obtained according to Formulation Example 1 was added a spreading agent (New RINOU available from Nihon Noyaku K.K.) at a dilution ratio of 3000-fold. The dilution was sprayed over potted cabbages at the four to five leaf stage at a volume of 25 ml per pot. After the treated plants were air dried, ten third-instar larvae of Plutella xylostella were set free on each pot. After 4 days, the mortality was determined.

Another assay concerns Spodoptera litura. As to the kind of experiment: Insecticidal test against Spodoptera litura. Particulars: 144 h, 500 ppm water dilution, 2 ml absorbed in 13 g artificial diet, fourth-instar larvae, after 6 days. How it is done: A 200-fold water dilution (500 ppm) of a test compound formulation obtained according to Formulation Example 1 or 2 was absorbed at a volume of 2 ml in an artificial diet (Insecta LF available from Nihon Nosan K.K.) having a weight of 13 g, which had been prepared in a polyethylene cup having a diameter of 11 cm. Five fourth-instar larvae of Spodoptera litura were set free in the cup. After 6 days, the survival of the larvae was examined to determine the mortality.

As a reminder, the mortality is the percentage killed. On to `CC(C)(C)ON=CCOCCCCOc1c(Cl)cc(OCC=C(Cl)Cl)cc1Cl` [(6), 4-(2,6-dichloro-4-(3,3-dichloro-2-propenyloxy)phenoxy)butyloxyacetaldehyde O-tert-butyloxime], for which the mortality at 100 µg/mL with Cydia pomonella is ≥ 80%. The mortality at 500 µg/mL with Musca domestica was ≥ 80%. In addition, the acaricidal activity entry in the assay with Tetranychus urticae is ““−” or “±””.

`CCc1cc(OCC=C(Cl)Cl)cc(CC)c1OCCCCOCC=NOC(C)(C)C` [(11), 4-(2,6-diethyl-4-(3,3-dichloro-2-propenyloxy)phenoxy)butyloxyacetaldehyde O-tert-butyloxime]: the mortality at 100 µg/mL in the assay with Heliothis virescens, in the assay with Cydia pomonella and with Helicoverpa armigera was ≥ 80% each time.

For `ClC(Cl)=CCON=CCOCCCOc1c(Cl)cc(OCC=C(Cl)Cl)cc1Cl` [(33), 3-(2,6-dichloro-4-(3,3-dichloro-2-propenyloxy)phenoxy)propyloxyacetaldehyde O-(3,3-dichloro-2-propenyl)oxime], the mortality at 100 µg/mL in the assay on Heliothis virescens and in the assay with Cydia pomonella was ≥ 80% in each case. Moreover, in the assay on Plutella xylostella, the mortality at 50 µg/mL was ≥ 80%. Also, the mortality at 500 µg/mL with Spodoptera litura was ≥ 80%.

With `ClC(Cl)=CCON=CCOCCCCCCOc1c(Cl)cc(OCC=C(Cl)Cl)cc1Cl` [(34), 6-(2,6-dichloro-4-(3,3-dichloro-2-propenyloxy)phenoxy)hexyloxyacetaldehyde O-(3,3-dichloro-2-propenyl)oxime], the mortality at 100 µg/mL in the assay on Heliothis virescens and with Cydia pomonella was ≥ 80% throughout. In the assay with Plutella xylostella, the mortality at 50 µg/mL was ≥ 80%. Also, the mortality at 500 µg/mL in the assay with Spodoptera litura is ≥ 80%.

For `CC(COCCCCCOc1c(Cl)cc(OCC=C(Cl)Cl)cc1Cl)=NOCC=C(Cl)Cl` [(47), 5-(2,6-dichloro-4-(3,3-dichloro-2-propenyloxy)phenoxy)pentyloxyacetone O-(3,3-dichloro-2-propenyl)oxime], the mortality at 100 µg/mL in the assay with Heliothis virescens and in the assay on Cydia pomonella was ≥ 80% each time. Also, the mortality at 50 µg/mL with Plutella xylostella was ≥ 80%. Also, the mortality at 500 µg/mL with Spodoptera litura is ≥ 80%.

For `CC(C)(C)ON=CCOCCCOc1c(Cl)cc(OCC=C(Cl)Cl)cc1Cl` [(90), 3-(2,6-dichloro-4-(3,3-dichloro-2-propenyloxy)phenoxy)propyloxyacetaldehyde O-tert-butyloxime], the mortality at 100 µg/mL in the assay on Heliothis virescens and in the assay with Cydia pomonella was ≥ 80% each time. In the assay on Plutella xylostella, the mortality at 50 µg/mL is ≥ 80%. In the assay on Spodoptera litura, the mortality at 500 µg/mL is ≥ 80%.

`CC(COCCCCOc1c(Cl)cc(OCC=C(Cl)Cl)cc1Cl)=NOC(C)(C)C` [(103), 4-(2,6-dichloro-4-(3,3-dichloro-2-propenyloxy)phenoxy)butyloxyacetone O-tert-butyloxime]: the mortality at 50 µg/mL in the assay on Plutella xylostella was ≥ 80%. Also, in the assay on Spodoptera litura, the mortality at 500 µg/mL was ≥ 80%.

With `CC(C)(C)ON=CCOc1c(Cl)cc(OCC=C(Cl)Cl)cc1Cl` [(131), (2,6-dichloro-4-(3,3-dichloro-2-propenyloxy)phenoxy)acetaldehyde O-tert-butyloxime], the mortality at 500 µg/mL in the assay on Spodoptera litura is ≥ 80%.

For the compound `CC(C)(C)ON=CCCOc1c(Cl)cc(OCC=C(Cl)Cl)cc1Cl` [(133), 3-(2,6-dichloro-4-(3,3-dichloro-2-propenyloxy)phenoxy)propionaldehyde O-tert-butyloxime], the mortality at 500 µg/mL in the assay with Spodoptera litura is ≥ 80%.

For the compound `CC(C)(C)ON=CCCCCCOc1c(Cl)cc(OCC=C(Cl)Cl)cc1Cl` [(134), 6-(2,6-dichloro-4-(3,3-dichloro-2-propenyloxy)phenoxy)hexanal O-tert-butyloxime], the mortality at 100 µg/mL with Heliothis virescens was ≥ 80%. Further, in the assay with Plutella xylostella, the mortality at 50 µg/mL is ≥ 80%. For the same compound, the mortality at 500 µg/mL in the assay on Spodoptera litura was ≥ 80%.

Consider `CC(COCCCCCOc1c(Cl)cc(OCC=C(Cl)Cl)cc1Cl)=NOCC(Cl)(Cl)Cl` [(173), 5-(2,6-dichloro-4-(3,3-dichloro-2-propenyloxy)phenoxy)pentyloxyacetone O-(2,2,2-trichloroethyl)oxime], for which, in the assay on Musca domestica, the mortality at 500 µg/mL is ≥ 80%. Further, in the assay on Tetranychus urticae, the acaricidal activity entry is listed as ““−” or “±””.

As to `CC(COCCCCCOc1c(Cl)cc(OCC=C(Cl)Cl)cc1Cl)=NOC(=O)C(C)(C)C` [(178), 5-(2,6-dichloro-4-(3,3-dichloro-2-propenyloxy)phenoxy)pentyloxyacetone O-pivaloyloxime], in the assay with Tetranychus urticae, the acaricidal activity result was ““−” or “±””.

As to `CC(COCCOCCOc1c(Cl)cc(OCC=C(Cl)Cl)cc1Cl)=NOC(C)(C)C` [(203), 2-(2-(2,6-dichloro-4-(3,3-dichloro-2-propenyloxy)phenoxy)-ethoxy)ethoxyacetone O-tert-butyloxime], the mortality at 500 µg/mL with Musca domestica and with Spodoptera litura was ≥ 80% each time.

Take `CON=Cc1ccc(OCCCCOc2c(Cl)cc(OCC=C(Cl)Cl)cc2Cl)cc1` [(306), 4-(4-(2,6-dichloro-4-(3,3-dichloro-2-propenyloxy)phenoxy)butyloxy)benzaldehyde O-methyloxime]: in the assay on Cydia pomonella, the mortality at 100 µg/mL was ≥ 80%. The acaricidal activity result with Tetranychus urticae was ““−” or “±””.

`CCON=C(CC)c1ccc(OCCCOc2c(Cl)cc(OCC=C(Cl)Cl)cc2Cl)cc1` [(318), 4′-(3-(2,6-dichloro-4-(3,3-dichloro-2-propenyloxy)phenoxy)propyloxy)propiophenone O-ethyloxime]: the mortality at 100 µg/mL with Helicoverpa armigera is ≥ 80%. Further, in the assay with Musca domestica, the mortality at 500 µg/mL is ≥ 80%. In the assay on Tetranychus urticae, the acaricidal activity result is ““−” or “±””.

Consider `CCCON=Cc1ccc(COc2c(Cl)cc(OCC=C(Cl)Cl)cc2Cl)cc1` [(327), 4-(2,6-dichloro-4-(3,3-dichloro-2-propenyloxy)phenoxymethyl)benzaldehyde O-propyloxime], for which the mortality at 50 µg/mL with Plutella xylostella is ≥ 80%. Further, the mortality at 100 µg/mL with Helicoverpa armigera is ≥ 80%. In addition, in the assay on Tetranychus urticae, the acaricidal activity entry is ““−” or “±””.

Regarding `CCCC=NOCCCCCOc1c(Cl)cc(OCC=C(Cl)Cl)cc1Cl` [(542), butanal O-(5-(2,6-dichloro-4-(3,3-dichloro-2-propenyloxy)phenoxy)pentyl)oxime], in the assay on Musca domestica, the mortality at 500 µg/mL was ≥ 80%. Further, the acaricidal activity result in the assay with Tetranychus urticae is on record as ““−” or “±””.

In the case of `CC(=NOCCCCCOc1c(Cl)cc(OCC=C(Cl)Cl)cc1Cl)C(C)C` [(582), 3-methyl-2-butanone O-(5-(2,6-dichloro-4-(3,3-dichloro-2-propenyloxy)phenoxy)pentyl)oxime], in the assay on Helicoverpa armigera, the mortality at 100 µg/mL was ≥ 80%. The acaricidal activity entry with Tetranychus urticae is ““−” or “±””.

Turning to `CC(=NOCCCCCCOc1c(Cl)cc(OCC=C(Cl)Cl)cc1Cl)C(C)C` [(583), 3-methyl-2-butanone O-(6-(2,6-dichloro-4-(3,3-dichloro-2-propenyloxy)phenoxy)hexyl)oxime], the acaricidal activity entry in the assay on Tetranychus urticae is listed as ““−” or “±””.

Regarding `CC(CC(C)C)=NOCCCCCCOc1c(Cl)cc(OCC=C(Cl)Cl)cc1Cl` [(589), 4-methyl-2-pentanone O-(6-(2,6-dichloro-4-(3,3-dichloro-2-propenyloxy)phenoxy)hexyl)oxime], in the assay with Plutella xylostella, the mortality at 50 µg/mL is ≥ 80%. The acaricidal activity result with Tetranychus urticae is reported as ““−” or “±””.

With `CC(CC(C)(C)C)=NOCCCCCOc1c(Cl)cc(OCC=C(Cl)Cl)cc1Cl` [(592), 4,4-dimethyl-2-pentanone O-(5-(2,6-dichloro-4-(3,3-dichloro-2-propenyloxy)phenoxy)pentyl)oxime], the acaricidal activity result with Tetranychus urticae is on record as ““−” or “±””.

Turning to `CC(CC(C)(C)C)=NOCCCCCCOc1c(Cl)cc(OCC=C(Cl)Cl)cc1Cl` [(593), 4,4-dimethyl-2-pentanone O-(6-(2,6-dichloro-4-(3,3-dichloro-2-propenyloxy)phenoxy)hexyl)oxime], the acaricidal activity entry in the assay with Tetranychus urticae is ““−” or “±””.
